Publication PMC9465178, “Cinnamaldehyde derivatives act as antimicrobial agents against Acinetobacter baumannii through the inhibition of cell division” (Frontiers in Microbiology, 2022)
≈ marks a conversion by molar mass, not a printed value.

Tests used:
[1] = system: A. baumannii XDR UW 5075; test: MIC, microbroth dilution (EUCAST); format: cell-based, Acinetobacter baumannii; details: Acinetobacter baumannii, XDRUW5075, 18 h
Procedure: (§1) Reference bacterial strains were obtained from the American Type Culture Collection (ATCC). Vancomycin resistant Enterococcus faecium (VRE 734, wastewater isolate from the Venter Laboratory Collection) was isolated on Bile Esculin agar (Oxoid, Australia) containing 6 μg/mL vancomycin and identified using MALDI-TOF mass spectrometry (Bruker, Preston, Victoria, Australia, Australian Center for Antimicrobial Resistance Ecology). The Pseudomonas aeruginosa WT PAO1 and Escherichia coli with deletions of both acrA and acrB genes encoding drug efflux pumps were obtained from the Venter laboratory stock ([Welch et al., 2010]). The protocol for microbial growth was adopted from the European Committee on Antimicrobial Susceptibility Testing (EUCAST) ([European Committee for Antimicrobial Susceptibility Testing, 2016]).
(§2) Non-fastidious bacteria and clinical isolates were maintained in Mueller Hinton (MH) broth (Acumedia, United Kingdom) supplemented with 15% (v/v) glycerol (Chem-Supply, Australia), cultured on Mueller Hinton (MH) agar (Acumedia, United Kingdom) plated and incubated at 37°C. Fastidious bacteria were maintained in Brain Heart Infusion (BHI) broth (Acumedia, United Kingdom) supplemented with 15% (v/v) glycerol at −80°C. The fastidious bacteria were cultured on MH agar plates supplemented with 5% (v/v) lysed horse blood and 3% (v/v) fetal bovine serum and incubated at 30°C in the presence of 5% CO2. Drug susceptibility assays were carried out with the non-fastidious cultures grown in cation-adjusted Mueller Hinton (CaMH) broth (Becton Dickinson, France). Streptococcus pyogenes was grown in CaMH broth supplemented with 5% (v/v) lysed horse blood and 3% (v/v) fetal bovine serum whereas Enterococcus faecium was grown in BHI broth.
(§3) The minimum inhibitory concentrations (MICs) for all six compounds were determined using the microbroth dilution protocol as per EUCAST with an inoculum of approximately […] in an exponential growth phase ([European Committee for Antimicrobial Susceptibility Testing, 2016]). Bacterial suspension, 100 μL/well, was added to 100 μL/well of drug dilutions, then incubated for 18 h at 37°C. Fastidious bacterial suspensions were instead incubated at 30°C in the presence of 5% CO2. Bacterial growth was assessed by measuring the change in A600 nm between time 0 and 18 h (Cytation5® Cell Imaging Multi-Mode Reader, Bio-Tek®). Levofloxacin was used as the positive control. Assays were completed in duplicate in at least three independent experiments.

[2] = system: A. baumannii ATCC 19606; test: MIC, microbroth dilution (EUCAST); format: cell-based, Acinetobacter baumannii; details: Acinetobacter baumannii, ATCC19606, 18 h
Procedure: as §1, §2, §3

[3] = system: A. baumannii ATCC 19606; test: Checkerboard titration MIC with efflux pump inhibitor PAβN; format: cell-based; details: Acinetobacter baumannii, ATCC19606, A. baumannii ATCC 19606
Procedure: (§4) To determine if expression of efflux pumps would play a role in the efflux of the cinnamaldehyde derivatives leading to poor antimicrobial activity, interactions between PAβN and the LXC compounds were assessed by checkerboard titration assay. The checkerboard titration assay was performed as previously described ([Chai et al., 2020]). Briefly, PAβN was added in the first row and serially diluted in CaMH broth along the ordinate of the microwell plate while the LXC compounds were serially diluted along the abscissa. Bacterial suspension for A. baumannii ATCC 19606 or AB UW 5075 100 μL/well were added as described for the MIC assay. Bacterial growth was assessed at A600 nm between time 0 and 18 h (Cytation5® Cell Imaging Multi-Mode Reader, Bio-Tek®).

[4] = system: A. baumannii XDR UW 5075; test: as above; format: cell-based, Acinetobacter baumannii; details: for MIC in combination with PAβN: PAβN concentration not given in the sentence
Procedure: as §4

[5] = system: Escherichia coli ATCC 35218; test: Antibacterial activity (MIC), microbroth dilution; format: cell-based; details: Escherichia coli, ATCC35218, read-out: Antibacterial activity (MIC)
Procedure: as §1, §2, §3

[6] = system: Methicillin resistant Staphylococcus aureus; test: Antibacterial activity (MIC), microbroth dilution; format: cell-based; details: Staphylococcus aureus, ATCC 43300 / MRSA, read-out: Antibacterial activity (MIC)
Procedure: as §1, §2, §3

[7] = system: Enterobacter aerogenes ATCC 13408; test: Antibacterial activity (MIC), microbroth dilution; format: cell-based; details: Klebsiella aerogenes, ATCC13408, read-out: Antibacterial activity (MIC)
Procedure: as §1, §2, §3

[8] = system: Pseudomonas aeruginosa ATCC 27853; test: Antibacterial activity (MIC), microbroth dilution; format: cell-based; details: Pseudomonas aeruginosa, ATCC27853, read-out: Antibacterial activity (MIC)
Procedure: as §1, §2, §3

[9] = system: Streptococcus pyogenes ATCC 10389; test: Antibacterial activity (MIC), microbroth dilution; format: cell-based; details: Streptococcus pyogenes, ATCC10389, read-out: Antibacterial activity (MIC)
Procedure: as §1, §2, §3

[10] = system: Escherichia coli WT BW 25113; test: Antibacterial activity (MIC), microbroth dilution; format: cell-based; details: Escherichia coli, WTBW25113, read-out: Antibacterial activity (MIC)
Procedure: as §1, §2, §3

[11] = system: Klebsiella pneumoniae ATCC 13883; test: Antibacterial activity (MIC), microbroth dilution; format: cell-based; details: Klebsiella pneumoniae, ATCC13883, read-out: Antibacterial activity (MIC)
Procedure: as §1, §2, §3

[12] = system: Klebsiella pneumoniae ATCC 4352; test: Antibacterial activity (MIC), microbroth dilution; format: cell-based; details: Klebsiella pneumoniae, ATCC4352, read-out: Antibacterial activity (MIC)
Procedure: as §1, §2, §3

[13] = system: Klebsiella pneumoniae ATCC 33495; test: Antibacterial activity (MIC), microbroth dilution; format: cell-based; details: Klebsiella pneumoniae, ATCC33495, read-out: Antibacterial activity (MIC)
Procedure: as §1, §2, §3

[14] = system: Pseudomonas aeruginosa WT PAO1; test: Antibacterial activity (MIC), microbroth dilution; format: cell-based; details: Pseudomonas aeruginosa, PAO1, read-out: Antibacterial activity (MIC)
Procedure: as §1, §2, §3

[15] = system: Streptococcus pneumoniae (type 3, mucoid strain) ATCC 6303; test: Antibacterial activity (MIC), microbroth dilution; format: cell-based; details: Streptococcus pneumoniae, ATCC6303, read-out: Antibacterial activity (MIC)
Procedure: as §1, §2, §3

[16] = A. baumannii XDR UW 5075, +PAβN 50 μg/mL
[17] = Acinetobacter baumannii, XDRUW5075
[18] = Acinetobacter baumannii, XDRUW5075, A. baumannii XDR UW 5075, +PAβN 100 μg/mL, read-out: MIC
[19] = Acinetobacter baumannii, XDRUW5075, A. baumannii XDR UW 5075, +PAβN 200 μg/mL, read-out: MIC

Cc1nc2ccccc2n1C(=O)/C=C/c1ccccc1 [Compound 1]
MIC [1]: > 128 mg/L
MIC [2]: 128 mg/L (≈ 488 µM)
MIC ([3]; +PAβN 0 μg/mL): 128 mg/L
MIC ([3]; +PAβN 50 μg/mL): 128 mg/L
MIC ([3]; +PAβN 100 μg/mL): 64 mg/L
MIC ([3]; +PAβN 200 μg/mL): 32 mg/L
MIC [4, 16]: >128 mg/L
MIC [4, 17]: > 128 mg/L
MIC [4, 18]: 128 mg/L
MIC [4, 19]: 64 mg/L
MIC [5]: > 256 mg/L
MIC [6]: 256 mg/L (≈ 976 µM)
MIC [7]: > 256 mg/L
MIC [8]: > 256 mg/L
MIC [9]: > 256 mg/L
MIC [10]: > 256 mg/L
MIC [11]: > 256 mg/L
MIC [12]: > 256 mg/L
MIC [13]: > 256 mg/L
MIC [14]: 256 mg/L (≈ 976 µM)
MIC [15]: 256 mg/L (≈ 976 µM)

Cc1nc2ccccc2n1C(=O)/C=C/c1ccc(Cl)cc1Cl [Compound 6]
MIC [1]: > 128 mg/L
MIC [2]: 64 mg/L (≈ 193 µM)
MIC ([3]; +PAβN 0 μg/mL): 64 mg/L
MIC ([3]; +PAβN 50 μg/mL): 32 mg/L
MIC ([3]; +PAβN 100 μg/mL): 16 mg/L
MIC ([3]; +PAβN 200 μg/mL): 8 mg/L
MIC [4, 16]: >128 mg/L
MIC in combination with PAβN ([4]; A. baumannii XDR UW 5075): 32 mg/L
MIC [4, 17]: > 128 mg/L
MIC [4, 18]: 32 mg/L
MIC [4, 19]: 32 mg/L
MIC [5]: > 256 mg/L
MIC [6]: 64 mg/L (≈ 193 µM)
MIC [7]: > 256 mg/L
MIC [8]: > 256 mg/L
MIC [9]: > 256 mg/L
MIC [10]: > 256 mg/L
MIC [11]: > 256 mg/L
MIC [12]: > 256 mg/L
MIC [13]: > 256 mg/L
MIC [14]: 256 mg/L (≈ 773 µM)
MIC [15]: 256 mg/L (≈ 773 µM)

Cc1nc2ccccc2n1C(=O)/C=C/c1ccc(F)cc1 [Compound 2]
MIC [1]: > 128 mg/L
MIC [2]: 128 mg/L (≈ 457 µM)
MIC ([3]; +PAβN 0 μg/mL): 128 mg/L
MIC ([3]; +PAβN 50 μg/mL): 128 mg/L
MIC ([3]; +PAβN 100 μg/mL): 32 mg/L
MIC ([3]; +PAβN 200 μg/mL): 16 mg/L
MIC [4, 16]: >128 mg/L
MIC [4, 17]: > 128 mg/L
MIC [4, 18]: 64 mg/L
MIC [4, 19]: 64 mg/L
MIC [5]: > 256 mg/L
MIC [6]: > 256 mg/L
MIC [7]: > 256 mg/L
MIC [8]: > 256 mg/L
MIC [9]: > 256 mg/L
MIC [10]: > 256 mg/L
MIC [11]: > 256 mg/L
MIC [12]: > 256 mg/L
MIC [13]: > 256 mg/L
MIC [14]: 256 mg/L (≈ 913 µM)
MIC [15]: 256 mg/L (≈ 913 µM)

Cc1nc2ccccc2n1C(=O)/C=C/c1ccc(Cl)cc1 [Compound 3]
MIC [1]: > 128 mg/L
MIC [2]: 128 mg/L (≈ 431 µM)
MIC ([3]; +PAβN 0 μg/mL): 128 mg/L
MIC ([3]; +PAβN 50 μg/mL): 128 mg/L
MIC ([3]; +PAβN 100 μg/mL): 8 mg/L
MIC ([3]; +PAβN 200 μg/mL): 8 mg/L
MIC [4, 16]: >128 mg/L
MIC [4, 17]: > 128 mg/L
MIC [4, 18]: 128 mg/L
MIC [4, 19]: 64 mg/L
MIC [5]: > 256 mg/L
MIC [6]: > 256 mg/L
MIC [7]: > 256 mg/L
MIC [8]: > 256 mg/L
MIC [9]: > 256 mg/L
MIC [10]: > 256 mg/L
MIC [11]: > 256 mg/L
MIC [12]: > 256 mg/L
MIC [13]: > 256 mg/L
MIC [14]: > 256 mg/L
MIC [15]: 256 mg/L (≈ 863 µM)

Cc1nc2ccccc2n1C(=O)/C=C/c1ccc(Br)cc1 [Compound 4]
MIC [1]: > 128 mg/L
MIC [2]: 32 mg/L (≈ 93.8 µM)
MIC ([3]; +PAβN 0 μg/mL): 32 mg/L
MIC ([3]; +PAβN 50 μg/mL): 32 mg/L
MIC ([3]; +PAβN 100 μg/mL): 8 mg/L
MIC ([3]; +PAβN 200 μg/mL): 8 mg/L
MIC [4, 16]: >128 mg/L
MIC [4, 17]: > 128 mg/L
MIC [4, 18]: 128 mg/L
MIC [4, 19]: 64 mg/L
MIC [5]: > 256 mg/L
MIC [6]: > 256 mg/L
MIC [7]: > 256 mg/L
MIC [8]: 256 mg/L (≈ 750 µM)
MIC [9]: > 256 mg/L
MIC [10]: > 256 mg/L
MIC [11]: > 256 mg/L
MIC [12]: > 256 mg/L
MIC [13]: > 256 mg/L
MIC [14]: > 256 mg/L
MIC [15]: 256 mg/L (≈ 750 µM)

COc1ccc(/C=C/C(=O)n2c(C)nc3ccccc32)cc1OC [Compound 5]
MIC [1]: > 128 mg/L
MIC [2]: 256 mg/L (≈ 794 µM)
MIC ([3]; +PAβN 0 μg/mL): 256 mg/L
MIC ([3]; +PAβN 50 μg/mL): 128 mg/L
MIC ([3]; +PAβN 100 μg/mL): 8 mg/L
MIC ([3]; +PAβN 200 μg/mL): 8 mg/L
MIC [4, 16]: >128 mg/L
MIC in combination with PAβN ([4]; A. baumannii XDR UW 5075): 32 mg/L
MIC [4, 17]: > 128 mg/L
MIC [4, 18]: 64 mg/L
MIC [4, 19]: 32 mg/L
MIC [5]: > 256 mg/L
MIC [6]: > 256 mg/L
MIC [7]: > 256 mg/L
MIC [8]: > 256 mg/L
MIC [9]: > 256 mg/L
MIC [10]: > 256 mg/L
MIC [11]: > 256 mg/L
MIC [12]: > 256 mg/L
MIC [13]: > 256 mg/L
MIC [14]: > 256 mg/L
MIC [15]: 256 mg/L (≈ 794 µM)
